Target: Recombinant KAT6A/MOZ (488-778) protein (Homo sapiens (Human), UniProt Q92794)
Assay: KAT6A AlphaLISA Inhibition Screening Assay
Type: biochemical
Conditions: for inhibition at 1 µM: read-out: Average Kat6A % inhibition @ 1 μM; for inhibition at 1 µM / Average Kat6A % inhibition @ 1 μM: 1 μM test compound; for inhibition at 10 µM: read-out: Average Kat6A % inhibition @ 10 μM; for inhibition at 10 µM / Average Kat6A % inhibition @ 10 μM: 10 μM test compound
Summary of the method: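 AlphaLISA read-out with anti-acetyl-lysine acceptor and streptavidin donor beads, % inhibition relative to vehicle. Reaction: biotinylated histone H3 1-21 (200 nM) and acetyl-CoA (400 nM) with KAT6A 488-778 (25 nM), 120 min at room temperature, pH 8.0, 330 nM TSA, after 60 or 10 min enzyme–compound pre-incubation; 10-point 3-fold series from 10 μM.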

Chain of Recombinant KAT6A/MOZ (488-778) protein (Q92794 488-778): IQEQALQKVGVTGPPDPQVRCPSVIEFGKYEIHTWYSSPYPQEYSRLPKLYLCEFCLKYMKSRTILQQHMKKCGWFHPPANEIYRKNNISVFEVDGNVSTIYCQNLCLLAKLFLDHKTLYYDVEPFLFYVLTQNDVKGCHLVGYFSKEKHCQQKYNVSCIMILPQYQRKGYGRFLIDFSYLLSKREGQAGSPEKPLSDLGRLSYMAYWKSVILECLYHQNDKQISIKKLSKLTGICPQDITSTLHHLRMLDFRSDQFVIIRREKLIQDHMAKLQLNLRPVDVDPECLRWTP

Compound	inhibition at 1 µM	inhibition at 10 µM	Average Kat6A % inhibition @ 1 μM	Average Kat6A % inhibition @ 10 μM
CCc1ccc(OCc2nc[nH]n2)c(S(=O)(=O)Nc2noc3cc(Cn4cc(CNC(=O)OC)cn4)cc(OC)c23)c1 [Syn. Ex. 117, methyl ((1-((3-((2-((1H-1,2,4-triazol-3-yl)methoxy)-5-ethylphenyl)sulfonamido)-4-methoxybenzo[d]isoxazol-6-yl)methyl)-1H-pyrazol-4-yl)methyl)carbamate]	100%	100%		
C=C(F)C(=O)NCc1cnn(Cc2cc(OC)c3c(NS(=O)(=O)c4cc(CC)ccc4OCC(=N)NO)noc3c2)c1 [Syn. Ex. 118, N-((1-((3-((5-ethyl-2-(2-(hydroxyamino)-2-iminoethoxy)phenyl)sulfonamido)-4-methoxybenzo[d]isoxazol-6-yl)methyl)-1H-pyrazol-4-yl)methyl)-2-fluoroacrylamide]	97%	100%		
C=C(F)C(=O)NCc1cnn(Cc2cc(OC)c3c(NS(=O)(=O)c4cc(CC)ccc4OCc4ncc[nH]4)noc3c2)c1 [Syn. Ex. 119, N-((1-((3-((2-((1H-imidazol-2-yl)methoxy)-5-ethylphenyl)sulfonamido)-4-methoxybenzo[d]isoxazol-6-yl)methyl)-1H-pyrazol-4-yl)methyl)-2-fluoroacrylamide]	100%	100%		
CCc1cc(S(=O)(=O)Nc2noc3cc(Cn4cc(CNC(=O)OC)cn4)cc(OC)c23)c(OC)cn1 [Syn. Ex. 120, methyl ((1-((3-((2-ethyl-5-methoxypyridine)-4-sulfonamido)-4-methoxybenzo[d]isoxazol-6-yl)methyl)-1H-pyrazol-4-yl)methyl)carbamate]			100%	100%
CCc1cnc(OC)c(S(=O)(=O)Nc2noc3cc(Cn4cc(CNC(=O)OC)cn4)cc(OC)c23)c1 [Syn. Ex. 121, methyl ((1-((3-((5-ethyl-2-methoxypyridine)-3-sulfonamido)-4-methoxybenzo[d]isoxazol-6-yl)methyl)-1H-pyrazol-4-yl)methyl)carbamate]			100%	94%
CCc1ccc(OCc2ccc(F)cc2)c(S(=O)(=O)Nc2noc3cc(Cn4cc(CNC(=O)OC)cn4)cc(OC)c23)c1 [Syn. Ex. 122, methyl ((1-((3-((5-ethyl-2-((4-fluorobenzyl)oxy)phenyl)sulfonamido)-4-methoxybenzo[d]isoxazol-6-yl)methyl)-1H-pyrazol-4-yl)methyl)carbamate]	100%	100%		
CCc1ccc(OCc2cccnc2)c(S(=O)(=O)Nc2noc3cc(Cn4cc(CNC(=O)OC)cn4)cc(OC)c23)c1 [Syn. Ex. 123, methyl ((1-((3-((5-ethyl-2-(pyridin-3-ylmethoxy)phenyl)sulfonamido)-4-methoxybenzo[d]isoxazol-6-yl)methyl)-1H-pyrazol-4-yl)methyl)carbamate]	100%	100%		
COC(=O)NCc1cnn(Cc2cc3onc(NS(=O)(=O)c4cc(F)ccc4OC)c3c3c2CCCO3)c1 [Syn. Ex. 124, methyl ((1-((9-((5-fluoro-2-methoxyphenyl)sulfonamido)-3,4-dihydro-2H-chromeno[8,7-d]isoxazol-5-yl)methyl)-1H-pyrazol-4-yl)methyl)carbamate]	100%	100%		
CCc1ccc(S(=O)(=O)Nc2noc3cc(Cn4cc(CNC(=O)OC)cn4)cc(OC)c23)c(OC)c1 [Syn. Ex. 125, methyl ((1-((3-((4-ethyl-2-methoxyphenyl)sulfonamido)-4-methoxybenzo[d]isoxazol-6-yl)methyl)-1H-pyrazol-4-yl)methyl)carbamate]	100%	101%		
COC(=O)NCc1cnn(Cc2cc(OC)c3c(NS(=O)(=O)c4cc5c(cc4OC)CCO5)noc3c2)c1 [Syn. Ex. 126, methyl ((1-((4-methoxy-3-((5-methoxy-2,3-dihydrobenzofuran)-6-sulfonamido)benzo[d]isoxazol-6-yl)methyl)-1H-pyrazol-4-yl)methyl)carbamate]			101%	100%
CCc1ccc(OCc2nnco2)c(S(=O)(=O)Nc2noc3cc(Cn4cc(CNC(=O)OC)cn4)cc(OC)c23)c1 [Syn. Ex. 127, methyl ((1-((3-((2-((1,3,4-oxadiazol-2-yl)methoxy)-5-ethylphenyl)sulfonamido)-4-methoxybenzo[d]isoxazol-6-yl)methyl)-1H-pyrazol-4-yl)methyl)carbamate]	101%	100%		
C#CCOc1ccc(CC)cc1S(=O)(=O)Nc1noc2cc(Cn3cc(CNC(=O)OC)cn3)cc(OC)c12 [Syn. Ex. 128, methyl ((1-((3-((5-ethyl-2-(prop-2-yn-1-yloxy)phenyl)sulfonamido)-4-methoxybenzo[d]isoxazol-6-yl)methyl)-1H-pyrazol-4-yl)methyl)carbamate]	101%	100%		
COC(=O)NCc1cnn(Cc2cc(OC)c3c(NS(=O)(=O)c4cccc5cc(C)cnc45)noc3c2)c1 [Syn. Ex. 129, methyl ((1-((4-methoxy-3-((3-methylquinoline)-8-sulfonamido)benzo[d]isoxazol-6-yl)methyl)-1H-pyrazol-4-yl)methyl)carbamate]			102%	102%
COC(=O)NCc1cnn(Cc2cc(OC)c3c(NS(=O)(=O)c4cc(C)cc5cccnc45)noc3c2)c1 [Syn. Ex. 130, methyl ((1-((4-methoxy-3-((6-methylquinoline)-8-sulfonamido)benzo[d]isoxazol-6-yl)methyl)-1H-pyrazol-4-yl)methyl)carbamate]			100%	102%
COC(=O)NCc1cnn(Cc2cc(OC)c3c(NS(=O)(=O)c4cccc5c(C)ccnc45)noc3c2)c1 [Syn. Ex. 131, methyl ((1-((4-methoxy-3-((4-methylquinoline)-8-sulfonamido)benzo[d]isoxazol-6-yl)methyl)-1H-pyrazol-4-yl)methyl)carbamate]			99%	100%
COC(=O)NCc1cnn(Cc2cc3onc(NS(=O)(=O)c4cc(C)cc5cccnc45)c3c3c2CCCO3)c1 [Syn. Ex. 132, methyl ((1-((9-((6-methylquinoline)-8-sulfonamido)-3,4-dihydro-2H-chromeno[8,7-d]isoxazol-5-yl)methyl)-1H-pyrazol-4-yl)methyl)carbamate]			100%	99%
COC(=O)NCc1cnn(Cc2cc3onc(NS(=O)(=O)c4ccccc4OC)c3c3c2CCCO3)c1 [Syn. Ex. 133, methyl ((1-((9-((2-methoxyphenyl)sulfonamido)-3,4-dihydro-2H-chromeno[8,7-d]isoxazol-5-yl)methyl)-1H-pyrazol-4-yl)methyl)carbamate]	100%	103%		
COC(=O)NCc1cnn(Cc2cc3onc(NS(=O)(=O)c4ccccc4OC)c3c3c2CCO3)c1 [Syn. Ex. 134, methyl ((1-((8-((2-methoxyphenyl)sulfonamido)-2,3-dihydrobenzofuro[7,6-d]isoxazol-4-yl)methyl)-1H-pyrazol-4-yl)methyl)carbamate]	97%	101%		
